Results on 17 compounds are retold here after patent US20180057507A1, “INHIBITORS OF DUAL LEUCINE ZIPPER (DLK) KINASE FOR THE TREATMENT OF DISEASE” (Board of Regents, The University of Texas System, priority 2016, published 2018).

Broadly, the Kd is the free concentration of one partner at which half of the binding sites on the other are occupied at equilibrium, for simple one-to-one binding. Low readings indicate a tighter complex, high ones a looser complex.

The target of this test is T1, human DLK (Homo sapiens, UniProt Q12852).
T1 sequence (Q12852 1-859): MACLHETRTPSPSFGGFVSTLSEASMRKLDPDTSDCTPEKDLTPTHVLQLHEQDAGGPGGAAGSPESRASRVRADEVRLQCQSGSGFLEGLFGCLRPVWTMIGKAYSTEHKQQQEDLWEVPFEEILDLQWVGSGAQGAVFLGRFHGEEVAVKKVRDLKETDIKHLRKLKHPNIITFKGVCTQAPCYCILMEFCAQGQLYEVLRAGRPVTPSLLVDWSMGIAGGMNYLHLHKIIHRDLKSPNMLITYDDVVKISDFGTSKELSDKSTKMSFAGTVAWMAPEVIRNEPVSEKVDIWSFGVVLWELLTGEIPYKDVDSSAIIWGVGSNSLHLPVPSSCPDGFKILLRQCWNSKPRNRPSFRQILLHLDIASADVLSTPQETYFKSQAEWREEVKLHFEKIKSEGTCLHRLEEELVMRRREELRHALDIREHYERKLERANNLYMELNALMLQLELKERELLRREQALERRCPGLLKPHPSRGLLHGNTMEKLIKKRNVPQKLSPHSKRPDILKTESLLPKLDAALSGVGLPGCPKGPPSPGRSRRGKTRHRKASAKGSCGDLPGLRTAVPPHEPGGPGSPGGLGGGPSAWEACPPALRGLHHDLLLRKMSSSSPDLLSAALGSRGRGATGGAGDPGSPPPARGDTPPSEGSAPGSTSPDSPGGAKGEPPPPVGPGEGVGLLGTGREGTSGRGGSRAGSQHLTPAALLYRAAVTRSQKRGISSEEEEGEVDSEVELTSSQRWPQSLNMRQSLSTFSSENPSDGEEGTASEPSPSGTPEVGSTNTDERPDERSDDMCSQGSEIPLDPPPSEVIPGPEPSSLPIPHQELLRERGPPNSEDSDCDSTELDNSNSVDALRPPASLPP
Put plainly: DLK Kd Determinations (KINOMEscan KdELECT, DiscoveRx). On the set-up: full length of human DLK (amino acids 1-859); host or cells: transiently transfected HEK293 cells; unpurified extract. The conditions noted are these: fusion protein of full length human DLK (amino acids 1-859) and NFkB DNA binding domain; qPCR readout; duplicate. The protocol:
The DLK dissociation constants (Kd) have been determined in the KINOMEscan KdELECT Service at DiscoveRx.
A fusion protein of full length of human DLK (amino acids 1-859) and the DNA binding domain of NFkB was expressed in transiently transfected HEK293 cells. From these HEK 293 cells, extracts were prepared in M-PER extraction buffer (Pierce) in the presence of Protease Inhibitor Cocktail Complete (Roche) and Phosphatase Inhibitor Cocktail Set II (Merck) per manufacturers' instructions. The DLK fusion protein was labeled with a chimeric double-stranded DNA tag containing the NFkB binding site (5′-GGGAATTCCC-3′) fused to an amplicon for qPCR readout, which was added directly to the expression extract (the final concentration of DNA-tag in the binding reaction is 0.1 nM).
Streptavidin-coated magnetic beads (Dynal M280) were treated with a biotinylated small molecule ligand for 30 minutes at room temperature to generate affinity resins the binding assays. The liganded beads were blocked with excess biotin and washed with blocking buffer (SeaBlock (Pierce), 1% BSA, 0.05% Tween 20, 1 mM DTT) to remove unbound ligand and to reduce nonspecific binding.
Extracts were used directly in binding assays without any enzyme purification steps at a ≧10,000-fold overall stock dilution (final DNA-tagged enzyme concentration <0.1 nM). Extracts were loaded with DNA-tag and diluted into the binding reaction in a two step process. First extracts were diluted 1:100 in 1× binding buffer (PBS/0.05% Tween 20/10 mM DTT/0.1% BSA/2 μg/ml sonicated salmon sperm DNA) containing 10 nM DNA-tag. This dilution was allowed to equilibrate at room temperature for 15 minutes and then subsequently diluted 1:100 in 1× binding buffer. Test compounds were prepared as 111× stocks in 100% DMSO. Kds were determined using an 11-point 3-fold compound dilution series with three DMSO control points. All compounds for Kd measurements are distributed by acoustic transfer (non-contact dispensing) in 100% DMSO. The compounds were then diluted directly into the assays such that the final concentration of DMSO was 0.9%. All reactions performed in polypropylene 384-well plates. Each was a final volume of 0.02 mL. Assays were incubated with shaking for 1 hour at room temperature. Then the beads were pelleted and washed with wash buffer (1×PBS, 0.05% Tween 20) to remove displaced kinase and test compound. The washed based were re-suspended in elution buffer (1×PBS, 0.05% Tween 20, 0.5 μM non-biotinylated affinity ligand) and incubated at room temperature with shaking for 30 minutes. The kinase concentration in the eluates was measured by qPCR. qPCR reactions were assembled by adding 2.5 μL of kinase eluate to 7.5 μL of qPCR master mix containing 0.15 μM amplicon primers and 0.15 μM amplicon probe. The qPCR protocol consisted of a 10 minute hot start at 95° C., followed by 35 cycles of 95° C. for 15 seconds, 60° C. for 1 minute.
Test compounds were prepared as 111× stocks in 100% DMSO. Kds were determined using an 11-point 3-fold compound dilution series with three DMSO control points. All compounds for Kd measurements are distributed by acoustic transfer (non-contact dispensing) in 100% DMSO. The compounds were then diluted directly into the assays such that the final concentration of DMSO was 0.9%. The Kds were determined using a compound top concentration of 30,000 nM. Kd measurements were performed in duplicate.
Binding constants (Kds) were calculated with a standard dose-response curve using the Hill equation: […]
The Hill Slope was set to −1. Curves were fitted using a non-linear least square fit with the Levenberg-Marquardt algorithm (Levenberg, K., A method for the solution of certain non-linear problems in least squares, Q. Appl. Math. 2, 164-168 (1944)). See also Fabian, M. A. et al. A small molecule-kinase interaction map for clinical kinase inhibitors. Nat. Biotechnol. […]
In the case of `Nc1ncc(-c2cn([C@H]3[C@@H]4CNC[C@@H]43)c(CC3CC3)n2)cc1C(F)(F)F` [Example 59, 5-(1-((1R,5S,6s)-3-azabicyclo[3.1.0]hexan-6-yl)-2-(cyclopropylmethyl)-1H-imidazol-4-yl)-3-(trifluoromethyl)pyridin-2-amine], the Kd is 50 nM.

The compound `CC(C)c1nc(-c2cnc(N)c(OC(F)F)c2)cn1[C@H]1[C@@H]2CN(C3CCOCC3)C[C@@H]21` [Example 60, 3-(difluoromethoxy)-5-(2-isopropyl-1-((1R,5S,6s)-3-(tetrahydro-2H-pyran-4-yl)-3-azabicyclo[3.1.0]hexan-6-yl)-1H-imidazol-4-yl)pyridin-2-amine] returned a Kd of 180 nM.

In turn, `Nc1ncc(-c2cn([C@H]3[C@@H]4CN(CC(F)F)C[C@@H]43)c(CC3CC3)n2)cc1C(F)(F)F` [Example 61, 5-(2-(cyclopropylmethyl)-1-((1R,5S,6s)-3-(2,2-difluoroethyl)-3-azabicyclo[3.1.0]hexan-6-yl)-1H-imidazol-4-yl)-3-(trifluoromethyl)pyridin-2-amine] displayed a Kd of 140 nM.

As to `Nc1ncc(-c2cn([C@H]3[C@@H]4CN(C5COC5)C[C@@H]43)c(C3CCCC3)n2)cc1C(F)(F)F` [Example 62, 5-(2-cyclopentyl-1-((1R,5S,6s)-3-(oxetan-3-yl)-3-azabicyclo[3.1.0]hexan-6-yl)-1H-imidazol-4-yl)-3-(trifluoromethyl)pyridin-2-amine], binding was characterised by a dissociation constant (Kd) of 85 nM.

`Nc1ncc(-c2cn([C@H]3[C@@H]4CN(C5COC5)C[C@@H]43)c(C3CCCC3)n2)cc1OC(F)(F)F` [Example 63, 5-(2-cyclopentyl-1-((1R,5S,6s)-3-(oxetan-3-yl)-3-azabicyclo[3.1.0]hexan-6-yl)-1H-imidazol-4-yl)-3-(trifluoromethoxy)pyridin-2-amine] showed a Kd of 140 nM.

`Nc1ncc(-c2cn([C@H]3[C@@H]4CN(C5COC5)C[C@@H]43)c(C3CCCC3)n2)cc1OC(F)F` [Example 64, 5-(2-cyclopentyl-1-((1R,5S,6s)-3-(oxetan-3-yl)-3-azabicyclo[3.1.0]hexan-6-yl)-1H-imidazol-4-yl)-3-(difluoromethoxy)pyridin-2-amine] came in with a Kd of 120 nM.

Compound `Nc1ncc(-c2cn([C@H]3[C@@H]4CN(CC(F)F)C[C@@H]43)c(C3CC3)n2)cc1OC(F)(F)F` [Example 67, 5-(2-cyclopropyl-1-((1R,5S,6s)-3-(2,2-difluoroethyl)-3-azabicyclo[3.1.0]hexan-6-yl)-1H-imidazol-4-yl)-3-(trifluoromethoxy)pyridin-2-amine] returned a Kd of 130 nM.

Turning to `Nc1ncc(-c2cn([C@H]3[C@@H]4CN(CC(F)(F)F)C[C@@H]43)c(C3CC3)n2)cc1OC(F)(F)F` [Example 70, 5-(2-cyclopropyl-1-((1R,5S,6s)-3-(2,2,2-trifluoroethyl)-3-azabicyclo[3.1.0]hexan-6-yl)-1H-imidazol-4-yl)-3-(trifluoromethoxy)pyridin-2-amine], the Kd was 510 nM.

`Nc1ncc(-c2cn([C@H]3[C@@H]4CNC[C@@H]43)c(C3CC3)n2)cc1C(F)(F)F` [Example 71, 5-(1-((1R,5S,6s)-3-azabicyclo[3.1.0]hexan-6-yl)-2-cyclopropyl-1H-imidazol-4-yl)-3-(trifluoromethyl)pyridin-2-amine] yielded a Kd of 87 nM.

`Nc1ncc(-c2cn([C@H]3[C@@H]4CN(CC(F)F)C[C@@H]43)c(C3CC3)n2)cc1C(F)(F)F` [Example 75, 5-(2-cyclopropyl-1-((1R,5S,6s)-3-(2,2-difluoroethyl)-3-azabicyclo[3.1.0]hexan-6-yl)-1H-imidazol-4-yl)-3-(trifluoromethyl)pyridin-2-amine]: binding was put at a Kd of 56 nM.

Regarding `Nc1ncc(-c2cn([C@H]3[C@@H]4CN(CC(F)(F)F)C[C@@H]43)c(CC3CC3)n2)cc1C(F)(F)F` [Example 79, 5-(2-(cyclopropylmethyl)-1-((1R,5S,6s)-3-(2,2,2-trifluoroethyl)-3-azabicyclo[3.1.0]hexan-6-yl)-1H-imidazol-4-yl)-3-(trifluoromethyl)pyridin-2-amine], the Kd was determined as 180 nM.

`CC(=O)N1C[C@@H]2[C@H](C1)[C@H]2n1cc(-c2cnc(N)c(C(F)(F)F)c2)nc1CC(F)(F)F` [Example 82, 1-((1R,5S,6s)-6-(4-(6-amino-5-(trifluoromethyl)pyridin-3-yl)-2-(2,2,2-trifluoroethyl)-1H-imidazol-1-yl)-3-azabicyclo[3.1.0]hexan-3-yl)ethan-1-one]: the affinity, expressed as Kd, was 97 nM.

Compound `Nc1ncc(-c2cn([C@H]3[C@@H]4CNC[C@@H]43)c(CC3CC3)n2)cc1OC(F)F` [Example 86, 5-(1-((1R,5S,6s)-3-azabicyclo[3.1.0]hexan-6-yl)-2-(cyclopropylmethyl)-1H-imidazol-4-yl)-3-(difluoromethoxy)pyridin-2-amine] displayed a Kd of 110 nM.

`Nc1ncc(-c2cn([C@H]3[C@@H]4CN(C5COC5)C[C@@H]43)c(CC3CC3)n2)cc1OC(F)F` [Example 87, 5-(2-(cyclopropylmethyl)-1-((1R,5S,6s)-3-(oxetan-3-yl)-3-azabicyclo[3.1.0]hexan-6-yl)-1H-imidazol-4-yl)-3-(difluoromethoxy)pyridin-2-amine] gave a Kd of 110 nM.

`Nc1ncc(-c2cn([C@H]3[C@@H]4CN(CC(F)F)C[C@@H]43)c(CC3CC3)n2)cc1OC(F)F` [Example 89, 5-(2-(cyclopropylmethyl)-1-((1R,5S,6s)-3-(2,2-difluoroethyl)-3-azabicyclo[3.1.0]hexan-6-yl)-1H-imidazol-4-yl)-3-(difluoromethoxy)pyridin-2-amine] came in with a Kd of 290 nM.

For `CC(=O)N1C[C@@H]2[C@H](C1)[C@H]2n1cc(-c2cnc(N)c(OC(F)(F)F)c2)nc1CC1CC1` [Example 91, 1-((1R,5S,6s)-6-(4-(6-amino-5-(trifluoromethoxy)pyridin-3-yl)-2-(cyclopropylmethyl)-1H-imidazol-1-yl)-3-azabicyclo[3.1.0]hexan-3-yl)ethan-1-one], binding was characterised by a dissociation constant (Kd) of 77 nM.

The compound `Nc1ncc(-c2cn([C@H]3[C@@H]4CN(CC(F)(F)F)C[C@@H]43)c(C3CC3)n2)cc1C(F)(F)F` [Example 93, 5-(2-cyclopropyl-1-((1R,5S,6s)-3-(2,2,2-trifluoroethyl)-3-azabicyclo[3.1.0]hexan-6-yl)-1H-imidazol-4-yl)-3-(trifluoromethyl)pyridin-2-amine] yielded a Kd of 270 nM.
